These are literature values, as cited in US20170281607A1, “PHARMACEUTICAL COMPOSITIONS AND METHODS FOR THE TREATMENT OF DIABETES” (University of Limerick, priority 2016, published 2017).

For this data set the following is noted: in vivo.

Turning to `COc1ccc2c(c1)[nH]c1c(C)nccc12` [harmine, 7-Methoxy-1-methyl-9H-pyrido[3,4-b]indole], the half-life (commonly the time in which the quantity being followed falls by half) is 1 to 3 h.
